Tests used:
Conditions in all cases: 0.2500 kg/ha
[1] = test system: Galium, Galium aparine; experiment: Preemergence herbicidal evaluation, GALAP; type: in vivo
Excerpt: (§1) Results of herbicide evaluation are expressed on a rating scale (0-9). The scale is based upon a visual observation of plant stand, vigor, malformation, size, chlorosis and overall plant appearance as compared with a control.
(§2) The preemergence herbicidal activity of the test compounds of the present invention is exemplified by the following tests in which the seeds of a variety of monocotyledonous and dicotyledonous plants are separately mixed with potting soil and planted on top of approximately one inch of soil in separate pint cups. After planting, the cups are sprayed with the selected aqueous acetone solution containing test compound in sufficient quantity to provide the equivalent of about 0.0156 to 0.500 kg per hectare of test compound per cup. The treated cups are then placed on greenhouse benches, watered and cared for in accordance with conventional greenhouse procedures. From four to five weeks after treatment, the tests are terminated and each cup is examined and rated according to the rating system provided in Example 185.
(§3) The compounds evaluated are reported by compound number given in Example 185.

[2] = test system: Rice, Tebonnet, Oryza sativa; experiment: Preemergence herbicidal evaluation, ORYSAT; type: in vivo, (L.) Tebonnet
Excerpt: as §1, §2, §3

[3] = test system: Lambsquarters, Common, Chenopodium album; experiment: Preemergence herbicidal evaluation, CHEAL; type: in vivo, L.
Excerpt: as §1, §2, §3

[4] = test system: Ragweed, Common, Ambrosia artemisifolia; experiment: Preemergence herbicidal evaluation, AMBEL; type: in vivo, L.
Excerpt: as §1, §2, §3

[5] = test system: Wheat, Winter, cv Riband, Triticum aestivum; experiment: Preemergence herbicidal evaluation, TRZAWR; type: in vivo
Excerpt: as §1, §2, §3

[6] = test system: Soybean, Williams, Glycine max; experiment: Preemergence herbicidal evaluation, GLXMAW; type: in vivo, (L.) Merr. cv Williams
Excerpt: as §1, §2, §3

[7] = test system: Morningglory, Ivyleaf, Ipomoea hederacea; experiment: Preemergence herbicidal evaluation, IPOHE; type: in vivo, (L.) Jacq.
Excerpt: as §1, §2, §3

[8] = test system: Sicklepod, Cassia obtusifolia; experiment: Preemergence herbicidal evaluation, CASOB; type: in vivo, L.
Excerpt: as §1, §2, §3

[9] = test system: Corn, Field, Zea mays; experiment: Preemergence herbicidal evaluation, ZEAMX; type: in vivo, L.
Excerpt: as §1, §2, §3

[10] = test system: Barnyardgrass, Echinochloa crus-galli; experiment: Preemergence herbicidal evaluation, ECHCG; type: in vivo, (L.) Beau
Excerpt: as §1, §2, §3

[11] = test system: Velvetleaf, Abutilon theophrasti; experiment: Preemergence herbicidal evaluation, ABUTH; type: in vivo, Medic.
Excerpt: as §1, §2, §3

[12] = test system: Foxtail, Green, Setaria viridis; experiment: Preemergence herbicidal evaluation, SETVI; type: in vivo, (L.) Beau
Excerpt: as §1, §2, §3

Question: Which results are given for `COC(=O)COc1noc2ccc(-n3c(=O)cc(C(F)(F)F)n(C)c3=O)cc12` [Compound 22, Methyl {{5-[3,6-dihydro-3-methyl-2,6-dioxo-4-(trifluoromethyl)-1(2H)-pyrimidinyl]-1,2-benzisoxazol-3-yl}oxy}acetate]?
Answer: herbicide rating (0-9) [1]: 4.0; herbicide rating (0-9) [2]: 0.0; herbicide rating (0-9) [3]: 0.0; herbicide rating (0-9) [4]: 0.0; herbicide rating (0-9) [5]: 0.0; herbicide rating (0-9) [6]: 2.0; herbicide rating (0-9) [7]: 0.0; herbicide rating (0-9) [8]: 9.0; herbicide rating (0-9) [9]: 1.0; herbicide rating (0-9) [10]: 0.0; herbicide rating (0-9) [11]: 0.0; herbicide rating (0-9) [12]: 0.0

Question: For `Cc1noc2cc(F)c(-n3c(=O)cc(C(F)(F)F)n(C)c3=O)cc12` [Compound 23, 3-(6-Fluoro-3-methyl-1,2-benzisoxazol-5-yl)-1-methyl-6-(trifluoromethyl)-2,4(1H,3H)-pyrimidinedione], which “herbicide rating (0-9)” value [1] is on record?
Answer: The value was 9.0.

Question: What about the “herbicide rating (0-9)” value [2] of the same molecule?
Answer: The value was 9.0.

Question: And the “herbicide rating (0-9)” value [3]?
Answer: The value was 9.0.

Question: What about the “herbicide rating (0-9)” value [4] of the same molecule?
Answer: Its value is 9.0.

Question: And the “herbicide rating (0-9)” value [5]?
Answer: The value was 9.0.

Question: What about the “herbicide rating (0-9)” value [6] of the same molecule?
Answer: Its value is 9.0.

Question: What about the “herbicide rating (0-9)” value [7] of the same molecule?
Answer: Its value is 9.0.

Question: What about the “herbicide rating (0-9)” value [8] of the same molecule?
Answer: The value was 9.0.

Question: And the “herbicide rating (0-9)” value [9]?
Answer: The value was 9.0.

Question: What about the “herbicide rating (0-9)” value [10] of the same molecule?
Answer: Its value is 9.0.

Question: What about the “herbicide rating (0-9)” value [11] of the same molecule?
Answer: Its value is 9.0.

Question: What about the “herbicide rating (0-9)” value [12] of the same molecule?
Answer: The value was 9.0.
